In patent US11529359B2, “Use of GABAA receptor modulators for treatment of itch” (UNIVERSITÄT ZÜRICH, priority 2016, dated 2022):

Legend:
[1] = system: chloroquine-induced itch; experiment: chloroquine-induced itch (thigh injection), intrathecal drug, wild-type mice; type: in vivo; conditions: 0.3 mg/kg intrathecal; 100 μg chloroquine into right thigh
Description: (§1) Acute itch was assessed in mice that received intradermal microinjections of pruritogens or 0.9% saline into the right cheek, which had been shaved at least one day before the experiment. In two sets of experiments that addressed the contribution of GABAARs in primary and secondary pruritoceptors, pruritogens were injected in the right thigh (FIG. 17). Before injection, mice were acclimatized to a 15 cm diameter cylindrical enclosure for more than 30 min with cage bedding on the ground. Background white noise generated by a radio in the room at ambient volume was applied to prevent auditory distraction. A 30 gauge needle was inserted bevel-up and pushed 5 mm horizontally into the skin beyond the point of insertion, before injection of the pruritogen (in a total volume of 10 μl). No anesthesia was used. Correct injection was confirmed by the appearance of a slightly domed bulla upon injection. […] Videos were analyzed off-line. Scratching of the hind paw directed to the ipsilateral cheek was counted in bouts, with one scratching bout defined as an instance when the mouse lifted its paw to scratch until it returned the paw to the cage floor. In case of experiments in which the pruritogen was injected in the skin of the thigh, the time spent biting the injected skin area was counted in s/min as a measure of itch.

[2] = system: motor coordination; experiment: rotarod assay (motor coordination); type: in vivo, mice; conditions: p.o., 60 min after administration
Description: (§2) Locomotor activity, muscle relaxant effects and motor coordination were assessed as described previously (Ralvenius, W. T., Benke, D., Acuña, M. A., Rudolph, U. & Zeilhofer, H. U. Nature Communications, 2015, 6). […] Motor coordination was assessed with a rotarod accelerating from 4 rpm to 40 rpm within 5 min. […] Fifteen measurements were taken per mouse. To assess muscle relaxation, mice were placed with their forepaws onto a metal horizontal wire placed 20 cm above ground.

[3] = system: muscle relaxation; experiment: horizontal wire test (muscle relaxation); type: in vivo, mice; conditions: p.o., 60-120 min after administration
Description: as §2

[4] = target: T1, α2GABAARs with H→R point mutation in the α2 subunit (Homo sapiens, UniProt P18507+P47869, H129R); experiment: positive allosteric modulation of H→R point-mutated α2GABAARs in HEK 293 cells; type: cell-based; conditions: 1 μM
T1 construct: expressed in transfected cells; host or cells: HEK 293 cells, transient transfection
From the text: (§3) HEK293 cells were transfected using lipofectamine LTX (Dugue, G. P., et al. Neuron, 2009, 61, 126-139). To ensure expression of the γ2 subunit (required for modulation of GABAARs by BDZs) in all recorded cells, the inventors transfected cells with a plasmid expressing the γ2 subunit plus eGFP from an IRES, and only selected eGFP-positive cells for recordings. The transfection mixture contained (in μg): 1 α1, 1 β2, 3 γ2/eGFP (used as a marker of successful transfection) or 1 αx, 1 β3, 3 γ2/eGFP in case of α2, α3, or α5GABAARs. Recordings were made 18-36 hrs after transfection. Whole-cell patch-clamp recordings of GABA-evoked currents were made at room temperature (20-24° C.) and at a holding potential of −60 mV. Recording electrodes were filled with solution containing (in mM): 120 CsCl, 10 EGTA, 10 HEPES (pH 7.40), 4 MgCl2, 0.5 GTP and 2 ATP. The external solution contained (in mM): 150 NaCl, 10 KCl, 2.0 CaCl2, 1.0 MgCl2, 10 HEPES (pH 7.4), and 10 glucose. GABA was applied to the recorded cell using a manually controlled pulse (4-6 s) of a low sub-saturating GABA concentration (ECS). ECs values of GABA were determined for all subunit combinations analyzed. […] Imax was determined as the average maximal current elicited by a concentration of 1 mM GABA. […]

[5] = system: α2GABAARs; experiment: chloroquine-induced biting (thigh injection) in hoxB8-α2−/−, α2fl/fl and α2 (H→R) mice; type: in vivo; conditions: 1 mg/kg p.o., 100 μg chloroquine thigh
Description: as §1

[6] = target: T2, α2β3γ2 GABAARs (Homo sapiens, UniProt P18507+P47869); experiment: GABA-evoked currents, recombinant GABAARs in HEK293 cells (α2); type: cell-based; conditions: HEK293 cells transiently transfected
T2 construct: expressed in transfected cells; host or cells: HEK293 cells (ATCC), transient transfection
From the text: as §3

[7] = system: histamine-induced itch; experiment: histamine-induced itch (cheek injection) in wild-type mice; type: in vivo, wild-type C57BL6/J mice; conditions: per oral 0.01, 0.03, 0.1, 1 and 3 mg/kg 90 min before 100 μg histamine; 30 min
Description: as §1

[8] = system: contact dermatitis-induced chronic itch; experiment: oxazolone contact dermatitis model of chronic itch in wild-type mice; type: in vivo, wild-type C57BL6/J mice
Description: Thus, TPA023B is, in accordance with the other findings of the inventors, suitable as an antipruritic substance.
This was independent of the treatment they received from day 7 to day 27.
The inventors sought to confirm the antipruritic efficacy of α2 and α3 GABAA receptor agonists against contact dermatitis-induced chronic itch. To this end, N-desmethyl clobazam, a benzodiazepine with improved activity at α2 versus α1 was assessed for its antipruritic effects (Jensen et al. PLoS One. 2014 Feb. 12; 9(2):e88456.).
Chronic itch was investigated in the contact dermatitis model (Kido-Nakahara, M., et al. J Clin Invest, 2014, 124, 2683-2695). Mice were treated once with 10% oxazolone in acetone/olive oil (4:1 v/v) on the shaved nape of the neck (100 μl) on day 0. After a resting period of 7 days, mice were treated with 1% oxazolone in acetone/olive oil (4:1 v/v) on the nape of the neck (100 μl) every other day for 10 days. On the day of the experiment, mice were injected with drug or vehicle i.p. under short and light isoflurane anesthesia. […]

[9] = system: brain membranes prepared from α1,2,3,5 H→R point mutated mice; type: binding, mice (RRRR); conditions: 4 nM [3H]Ro 15-4513; increasing concentrations; n=4
Description: The supernatant was centrifuged for 20 min at 30,000 g and the resulting crude membrane pellet was washed once with buffer. […] Non-specific [^3H]Ro 15-4513 binding was assessed by addition of 10 μM flumazenil to the reaction. Incubation was stopped by rapid vacuum filtration using a semiautomatic cell harvester (Skatron Instruments) and washed filters were subjected to liquid scintillation counting.

[10] = system: GABAARs; experiment: recombinant GABAARs in HEK293 cells, direct activation in the absence of GABA; type: cell-based
From the text: as §3

[11] = target: T3, α1 GABAARs (Homo sapiens, UniProt P14867+P18507); experiment: GABA-evoked currents, recombinant GABAARs in HEK293 cells (α1); type: cell-based; conditions: HEK293 cells transiently transfected
T3 construct: expressed in transfected cells; host or cells: HEK293 cells (ATCC), transient transfection
From the text: as §3

T1 sequence (P47869 29-451 H129R): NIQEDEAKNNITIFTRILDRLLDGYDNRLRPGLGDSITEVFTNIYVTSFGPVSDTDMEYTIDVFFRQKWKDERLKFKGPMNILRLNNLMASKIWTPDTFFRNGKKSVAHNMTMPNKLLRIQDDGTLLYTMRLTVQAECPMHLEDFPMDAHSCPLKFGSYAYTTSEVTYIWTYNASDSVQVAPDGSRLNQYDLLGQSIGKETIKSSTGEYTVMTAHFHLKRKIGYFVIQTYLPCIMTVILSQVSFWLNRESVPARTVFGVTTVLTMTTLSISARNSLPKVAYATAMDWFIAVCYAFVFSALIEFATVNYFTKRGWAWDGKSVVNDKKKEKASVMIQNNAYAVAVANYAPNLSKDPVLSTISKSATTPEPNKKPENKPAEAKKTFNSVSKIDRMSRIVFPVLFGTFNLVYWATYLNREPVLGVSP
T1 sequence (P28472 26-473 partner): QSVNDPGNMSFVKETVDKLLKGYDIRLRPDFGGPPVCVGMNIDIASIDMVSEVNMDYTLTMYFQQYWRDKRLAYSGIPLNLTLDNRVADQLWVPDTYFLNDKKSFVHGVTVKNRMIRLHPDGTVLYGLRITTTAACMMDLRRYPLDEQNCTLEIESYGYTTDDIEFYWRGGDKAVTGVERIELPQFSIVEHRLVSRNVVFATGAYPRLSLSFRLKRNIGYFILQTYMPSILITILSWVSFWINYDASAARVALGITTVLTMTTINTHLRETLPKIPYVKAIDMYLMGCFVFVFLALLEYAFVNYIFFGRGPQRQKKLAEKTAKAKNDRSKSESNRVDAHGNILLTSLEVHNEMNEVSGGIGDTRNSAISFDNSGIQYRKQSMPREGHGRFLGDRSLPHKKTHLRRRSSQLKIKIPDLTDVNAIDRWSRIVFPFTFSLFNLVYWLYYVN
T1 sequence (P18507 40-467 limits assumed): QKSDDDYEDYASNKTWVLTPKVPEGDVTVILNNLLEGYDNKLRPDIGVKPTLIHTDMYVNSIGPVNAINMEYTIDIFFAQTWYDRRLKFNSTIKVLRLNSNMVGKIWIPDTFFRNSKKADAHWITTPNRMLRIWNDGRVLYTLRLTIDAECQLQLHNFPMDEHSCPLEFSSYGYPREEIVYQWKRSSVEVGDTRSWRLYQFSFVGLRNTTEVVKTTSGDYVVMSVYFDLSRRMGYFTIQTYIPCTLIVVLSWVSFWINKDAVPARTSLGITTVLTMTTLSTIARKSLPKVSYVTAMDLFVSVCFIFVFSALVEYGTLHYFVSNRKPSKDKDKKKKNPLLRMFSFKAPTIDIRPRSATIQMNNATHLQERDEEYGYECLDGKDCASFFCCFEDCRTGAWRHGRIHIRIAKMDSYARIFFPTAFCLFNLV
T2 sequence (P47869 29-451): as the sequence (P47869 29-451 H129R) above, with R101H counted along it
T2 sequence (P28472 26-473 partner): as the sequence (P28472 26-473 partner) above
T2 sequence (P18507 40-467 limits assumed): as the sequence (P18507 40-467 limits assumed) above
T3 sequence (P14867 28-456): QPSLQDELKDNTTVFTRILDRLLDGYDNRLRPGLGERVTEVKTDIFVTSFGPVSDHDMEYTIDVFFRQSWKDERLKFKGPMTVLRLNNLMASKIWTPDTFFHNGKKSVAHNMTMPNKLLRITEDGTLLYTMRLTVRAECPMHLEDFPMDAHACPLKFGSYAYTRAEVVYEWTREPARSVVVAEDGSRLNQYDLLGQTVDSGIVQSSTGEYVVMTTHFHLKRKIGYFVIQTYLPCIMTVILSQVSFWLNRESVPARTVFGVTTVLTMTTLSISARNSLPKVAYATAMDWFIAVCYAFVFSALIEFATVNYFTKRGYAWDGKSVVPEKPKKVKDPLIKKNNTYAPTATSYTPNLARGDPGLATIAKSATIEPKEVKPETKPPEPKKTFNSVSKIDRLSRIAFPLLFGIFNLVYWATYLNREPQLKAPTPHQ
T3 sequence (P47870 25-512 partner limits assumed): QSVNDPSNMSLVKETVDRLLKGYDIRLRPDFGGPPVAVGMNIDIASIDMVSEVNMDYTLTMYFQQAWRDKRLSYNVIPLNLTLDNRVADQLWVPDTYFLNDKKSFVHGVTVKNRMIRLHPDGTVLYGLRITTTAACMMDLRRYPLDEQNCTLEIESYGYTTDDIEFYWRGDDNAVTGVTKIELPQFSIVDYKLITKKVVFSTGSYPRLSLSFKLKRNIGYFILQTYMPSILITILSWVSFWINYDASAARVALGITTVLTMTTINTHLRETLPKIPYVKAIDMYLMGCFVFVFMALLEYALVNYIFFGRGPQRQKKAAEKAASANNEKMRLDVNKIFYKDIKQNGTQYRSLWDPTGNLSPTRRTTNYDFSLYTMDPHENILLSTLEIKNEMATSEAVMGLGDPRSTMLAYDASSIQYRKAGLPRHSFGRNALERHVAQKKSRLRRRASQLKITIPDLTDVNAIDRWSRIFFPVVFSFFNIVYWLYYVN
T3 sequence (P18507 40-467 limits assumed): as the sequence (P18507 40-467 limits assumed) above

SMILES: CC(C)(O)c1cnn2c(-c3ccc(F)c(-c4c(F)cccc4C#N)c3)cnc2n1 [TPA023B, 6,2′-difluoro-5′-[3-(1-hydroxy-1-methylethyl)imidazo[1,2-b][1,2,4]triazin-7-yl]biphenyl-2-carbonitrile]
- antipruritic action after intrathecal injection (biting time, scratching bouts 0-10 min) [1]: antipruritic action
- motor coordination in the rotarod assay [2]: did not reduce motor coordination
- muscle relaxation in the horizontal wire test [3]: did not cause muscle relaxation
- positive allosteric modulation of H→R point-mutated α2GABAARs [4]: abolished
- biting responses, hoxB8-α2−/− mice vs global α2R/R mice [5]: No significant difference
- biting responses in treated mice compared between genotypes ([5]; hoxB8-α2−/−, α2fl/fl and α2 (H→R) mice): differed significantly between genotypes
- activity at the benzodiazepine binding site (potentiation of GABA-induced currents) [6]: partial agonistic activity
- scratching bouts, histamine-induced itch [7]: dose-dependent reduction of scratching bouts
- tolerance development to the antipruritic effects ([8]; 1 mg/kg i.p. for nine consecutive days, d/d vs v/d): exclude tolerance development
- scratching bouts directed at the nape of the neck vs vehicle ([8]; 1 mg/kg i.p. on day 18, 15 to 210 min after injection): significant reduction in scratching bouts
- scratching bouts on day 28 vs vehicle, independent of pretreatment ([8]; 1 mg/kg i.p. on day 28 after vehicle or 1 mg/kg once daily for nine consecutive days): significant reduction in scratching bouts
- displacement of [3H]Ro 15-4513 binding [9]: failed to displace
- activation of GABAARs in the absence of GABA [10]: did not activate
- potentiation of GABA-induced currents [11]: did not potentiate GABA-induced currents
